Earlier results in PMC6073568, “Efficient Lead Finding, Activity Enhancement and Preliminary Selectivity Control of Nuclear Receptor Ligands Bearing a Phenanthridinone Skeleton” (International Journal of Molecular Sciences, 2018).

Molecular target: T1, LXRα (Homo sapiens, UniProt Q13133)
T1 construct: CMX-GAL4N-hLXRα-LBD; expressed in transfected cells; host or cells: HEK293
T1 sequence (Q13133 209-447 limits assumed): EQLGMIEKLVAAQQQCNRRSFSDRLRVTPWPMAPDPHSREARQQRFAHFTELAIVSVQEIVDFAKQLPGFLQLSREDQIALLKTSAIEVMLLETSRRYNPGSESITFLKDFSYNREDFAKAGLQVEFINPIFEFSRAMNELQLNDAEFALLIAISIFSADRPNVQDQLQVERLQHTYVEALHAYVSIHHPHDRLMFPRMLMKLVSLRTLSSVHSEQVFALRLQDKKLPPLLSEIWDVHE
Details: read-out: LXRα antagonistic activity (IC50); cited from earlier work

O=c1[nH]c2ccc(C(O)(C(F)(F)F)C(F)(F)F)cc2c2ccccc12 [Compound 1]
IC50: 5 µM
